Test results: patent US10806729B2, “Quinoline derivatives for use in the treatment or prevention of viral infection” (ABIVAX, priority 2015, dated 2020)

How the values were obtained:
HIV-1 strain Ada-MR5 = experiment: HIV-1 p24 production in infected activated PBMCs (ELISA); format: cell-based; settings: stimulated PBMCs, supernatant 6 days post-infection, increasing concentrations
Source text: FIG. 1. Potency of quinoline derivatives to inhibit HIV-1 production in PBMC- and macrophages-infected cells. […] Each point represents 6 donors. B) HIV-1 strain YU2 was used to infect triplicate of monocyte derived-macrophages from different donors in the absence or presence of increasing concentrations of Compound 22. […] Each point represents 8 donors.
Buffy coats from HIV-negative individuals were obtained from the local blood donation center in Zurich, Switzerland (http://www.blutspendezurich.ch/) and Centre de transfusion sanguine Montpellier. Human peripheral blood mononuclear cells (PBMCs) were isolated by Ficoll (Axis-Shield PoC AS) gradient centrifugation. The cells have then been cultivated at 37° C., 5% CO2 to a density of 1×10^6 cells/mL in RPMI Glutamax medium (Life Technologies Ref 61870-010) supplemented with 10% fetal calf serum (FCS) (Thermo Fischer Ref SV30160.03), 1000 U/mL of IL2 (Peprotech Ref 200-02) and 5 μg/mL of PHA (Roche Ref 1249738) for activation. Three days later, cells have been pooled and resuspended to a density of 1×10^6 cells/mL in RPMI Glutamax medium supplemented with 10% fetal calf serum (FCS) 1000 U/mL of IL-2 for infection. HIV-1 infection has been performed with 10 μg of Ada-M R5 HIV strain per mL of cells for 4 hours. […]
Cells were treated with 0.01 μM up to 30 μM and p24 antigen levels were monitored in culture supernatant over a 12 day period. […]

JRCSF HIV-1 strain = experiment: Reconstituted SCID mice infected with JRCSF HIV-1 strain; format: in vivo, mouse
Description: FIG. 3. Efficacy of Compound 22 to inhibit viral replication in humanized mice. A) Reconstituted SCID mice were infected with JRCSF HIV-1 strain by intraperitoneal injection. Control group received by gavage labrafil and 5% DMSO (n=15) and treated group 20 mg/kg b.i.d of Compound 22 in labrafil and 5% DMSO (n=14) for 15 days. Two independent experiments were performed with 5 and 10 reconstituted mice for each group. Viral load was assessed by measuring viral RNA using the Amplicor HIV-1 Monitor from Roche. B) FACS analysis was performed on peritoneal wash at day 15 post-treatment to assess the CD8/CD4 ratio. C) Engrafted NSG humanized mice were treated by oral gavage with Compound 22 at either 20 mg or 40 mg/kg once a day for 30 days and indicated lymphocyte populations (CD45+; CD4+ and CD8+) were monitored by FACS analysis. D) NSG humanized mice were infected with the YU2 HIV-1 virus and treated either by oral gavage with Compound 22 at 40 mg/kg once a day for 30 days or by HAART (3TC-Tenofovir-Raltegravir and AZT). […] Viral load was assessed by measuring viral RNA using the Amplicor HIV-1 Monitor from Roche. […]
Briefly, TCID50 (tissue culture infectious dose 50%) was determined by infecting human CD8+ T-cell-depleted peripheral blood mononuclear cells (PBMCs) from three donors which were stimulated by addition of IL-2, PHA and anti-CD3 beads (Dynal 11131D, Life Technologies). […] HIV RNA plasma levels were measured by RT-PCR (Amplicor HIV-1 test or AmpliPrep/COBAS TaqMan HIV-1 Test, Roche) at various times after infection.
Cell suspensions were labeled with anti-human monoclonal antibodies (mAb) targeting the following cell-surface markers: CD45-FITC, CD3-PE, CD4-Pe Cy7, CD8-BV421 and CD19-APC (all from Biolegend). Washing and reagent dilutions were done with FACS buffer (PBS containing 2% fetal calf serum and 0.05% sodium azide (NaN3). All acquisitions were performed on a Cyan ADP (Beckman Coulter) flow cytometer. Data were analyzed with FlowJo software (Ashland, Oreg.). Cellular debris and dead cells were excluded by their light-scattering characteristics.

[1] = system: lymphocyte populations (CD45+; CD4+ and CD8+); experiment: Lymphocyte populations in engrafted humanized mice treated for 30 days; format: in vivo; settings: 20 mg/kg or 40 mg/kg for one month, compared to controls without treatment
Description: NOD.scid.IL2R−/− (NSG) mice were bred and maintained in individual ventilated cages and were fed autoclaved food and water.
Briefly, newborn (<5 days old) NSG mice received sub-lethal (1Gy) total body irradiation with a Cs source, and then received 2×105 transduced or untransduced CD34+ human HSCs using a 50 μl Hamilton syringe via the intrahepatic (i.h.) route. All manipulations of NSG-HIS mice were performed under laminar flow. […] Mice were monitored three times a week for symptoms or signs of adverse events, according to a standard score sheet.

[2] = system: resistant mutants of NL4.3 strain (K103N, K65R and M184V); settings: human PBMCs, NL4.3 mutants K103N
[3] = 20 mg/kg twice a day, FACS at day 15

With FC(F)(F)Oc1ccc(Nc2ccc3cccc(Cl)c3n2)cc1 [Compound 22, 8-chloro-N-(4-(trifluoromethoxy)phenyl)quinolin-2-amine] the “inhibition of HIV-1 replication (p24 antigen)” value (HIV-1 strain Ada-MR5) was “dose dependent inhibition”, the “viral load (viral RNA)” value (JRCSF HIV-1 strain; 20 mg/kg twice a day oral gavage, 15 days of treatment) was “significantly reduce the viral load” and the “CD8+/CD4+ ratio” value (JRCSF HIV-1 strain; [3]) was “restores CD8+/CD4+ ratio back to that of non-infected mice”. The “depletion of CD4+ cells following infection” value (JRCSF HIV-1 strain; [3]) was “prevents depletion of CD4+ cells”, the “engraftment values of CD45+ cells and ratio of CD8+/CD4+” value [1] was “neither alters engraftment values of CD45+ cells nor the ratio of CD8+/CD4+” and the “inhibition of replication of viral strains harbouring resistance mutations (RT activity)” value [2] was “very efficiently inhibits”.
